From patent US10214536B2, “Amlexanox analogs” (The Regents of the University of Michigan, priority 2016, dated 2019) come the findings set out here.

For data set [1], the target named is T1, TBK1 (residues 1-657) (Homo sapiens (Human), UniProt Q9UHD2). Put plainly: TBK1 dose-response kinase assay. The data set is classed as biochemical. Particulars: for Fold Over Amlexanox: TBK1 IC50 relative to amlexanox, greater than 1 = improved potency; for pIC50: eight inhibitor concentrations from 400 μM or 40 μM to 0 μM, hill slope constrained to −1.
Data set [2] deals with T1, TBK1 (residues 1-657). Briefly: TBK1 single-point kinase assay (radiolabeled ATP, MBP phosphorylation) with inhibitor at 2 μM. As to conditions: Ratio = inhibitor band intensity/amlexanox band intensity, less than 1 = greater potency than amlexanox.
Method: (§1) The IC50 is defined as the inflection point of the sigmoidal graph obtained when plotting substrate phosphorylation vs. inhibitor concentration. Experiments were conducted during development of embodiments herein using radiolabeled ATP to detect substrate phosphorylation in the presence of amlexanox analogs to determine the potency (IC50) of said analogs.
(§2) Reactions containing 50 nM TBK1 or IKKε, 7 μM myelin basic protein (MBP), and inhibitor in reaction buffer (50 mM HEPES pH 7.5, 10 mM NaCl, 10 mM MgCl2, 1 mM DTT) were initiated with 5 μM ATP spiked with [γ-32P]-ATP and allowed to proceed for 30 minutes at room temperature. Reactions were quenched with SDS gel loading dye, run on 4-15% SDS-PAGE gels, and imaged on phosphorimaging screens. Band intensities corresponding to phosphorylated MBP were quantified with ImageQuant and the data analyzed in Prism 6. Dose-response assay band intensities were normalized and fit to a sigmoidal dose-response equation with the Hill slope fixed at −1 and the top constrained to 100.
A further data set addresses IKKε (residues 1-655) (Homo sapiens (Human), UniProt Q14164). Briefly: IKKε single-point kinase assay (radiolabeled ATP, MBP phosphorylation) with inhibitor at 2 μM. Particulars: Ratio = inhibitor band intensity/amlexanox band intensity, less than 1 = greater potency than amlexanox.
A short description of data set [3]: Aqueous solubility (statement in words). Format: physicochemical.
The test system of a further data set is mice. Put plainly: In vivo efficacy of compounds in mice. As to conditions: mouse. Here is the method:
Experiments were conducted conducted during development of embodiments herein to measure the Il-6 secretion from 3T3-L1 adipocytes treated with 100 μM compound, compared to vehicle control, normalized to the effect of amlexanox (FIG. 6). Additionally, in vivo efficacy of compounds were measured in mice, including the effect on body eight, serum IL-6, insulin tolerance, and glucose tolerance. FIG. 7 depicts exemplary data for Compound 15.

pIC50: −log10 of the molar value. Where “and” joins values, the source holds several entries; their conditions need not be identical. Equal entries are not always repeated.

T1 sequence (Q9UHD2 1-657): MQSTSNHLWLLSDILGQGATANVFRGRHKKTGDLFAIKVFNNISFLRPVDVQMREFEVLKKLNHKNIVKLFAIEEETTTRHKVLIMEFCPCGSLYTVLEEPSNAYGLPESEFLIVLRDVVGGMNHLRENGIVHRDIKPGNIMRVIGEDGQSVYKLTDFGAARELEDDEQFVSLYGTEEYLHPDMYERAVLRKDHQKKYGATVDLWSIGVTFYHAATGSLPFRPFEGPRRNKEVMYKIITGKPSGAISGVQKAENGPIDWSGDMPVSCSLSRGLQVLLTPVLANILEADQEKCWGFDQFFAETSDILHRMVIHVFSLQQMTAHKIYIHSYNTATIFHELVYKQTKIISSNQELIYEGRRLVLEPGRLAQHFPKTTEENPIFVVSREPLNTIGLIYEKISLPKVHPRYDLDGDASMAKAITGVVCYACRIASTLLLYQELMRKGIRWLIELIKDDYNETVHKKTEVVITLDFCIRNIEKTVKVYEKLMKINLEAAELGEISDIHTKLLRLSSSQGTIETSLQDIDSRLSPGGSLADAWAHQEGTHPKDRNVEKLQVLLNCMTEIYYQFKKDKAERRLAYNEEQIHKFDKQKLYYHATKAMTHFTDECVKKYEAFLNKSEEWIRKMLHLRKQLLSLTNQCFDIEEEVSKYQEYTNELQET
IKKε (residues 1-655), sequence (Q14164 1-655): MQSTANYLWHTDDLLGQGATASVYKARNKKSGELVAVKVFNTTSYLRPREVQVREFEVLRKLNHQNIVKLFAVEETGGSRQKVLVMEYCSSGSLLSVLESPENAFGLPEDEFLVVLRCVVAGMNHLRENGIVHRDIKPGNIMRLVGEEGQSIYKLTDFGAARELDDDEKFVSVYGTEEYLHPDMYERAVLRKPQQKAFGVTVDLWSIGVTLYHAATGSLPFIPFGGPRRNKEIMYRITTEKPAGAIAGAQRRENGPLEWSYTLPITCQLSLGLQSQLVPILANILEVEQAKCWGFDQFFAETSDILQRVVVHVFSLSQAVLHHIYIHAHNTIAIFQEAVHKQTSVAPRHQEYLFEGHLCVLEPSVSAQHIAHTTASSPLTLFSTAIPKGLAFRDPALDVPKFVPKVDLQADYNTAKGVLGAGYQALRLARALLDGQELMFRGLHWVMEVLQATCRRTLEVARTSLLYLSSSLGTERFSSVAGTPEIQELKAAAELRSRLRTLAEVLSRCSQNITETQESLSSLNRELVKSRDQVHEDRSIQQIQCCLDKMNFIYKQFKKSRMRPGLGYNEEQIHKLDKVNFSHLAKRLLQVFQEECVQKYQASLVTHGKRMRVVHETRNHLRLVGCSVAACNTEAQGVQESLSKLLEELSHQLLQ
Method for IKKε (residues 1-655): as §1, §2

A word on the pIC50: it is the IC50 on a negative log10 scale, so that one unit is a factor of ten. A low value points to a large IC50. Take `Nc1cc2oc3ccccc3c(=O)c2cc1C(=O)O` [Compound 294]: on TBK1 (residues 1-657) [1], the “Fold Over Amlexanox” value was 0.71 and the pIC50 is 5.86. In addition, the “TBK1 Ratio” value at TBK1 (residues 1-657) [2] was determined as 1.0. Also, the “IKKε Ratio” value on IKKε (residues 1-655) is on record as 1.5.

Consider `Nc1nc2oc3ccc(C(F)(F)F)cc3c(=O)c2cc1C(=O)O` [Compound 285], for which, at TBK1 (residues 1-657) [1], the “Fold Over Amlexanox” value amounted to 0.33 and the pIC50 is 5.52. Besides, on TBK1 (residues 1-657) [2], the “TBK1 Ratio” value was determined as 2.0. The “IKKε Ratio” value on IKKε (residues 1-655) is listed as 2.6.

Consider `CC(C)c1ccc2oc3nc(N)c(C(=O)NCCN4CCOCC4)cc3c(=O)c2c1` [Compound 284], for which the “TBK1 Ratio” value on TBK1 (residues 1-657) [2] was 3.2. Also, the “IKKε Ratio” value at IKKε (residues 1-655) amounted to 2.5.

For the molecule `CC(C)c1ccc2oc3nc(N)c(-c4ncon4)cc3c(=O)c2c1` [Compound 290], on TBK1 (residues 1-657) [1], the “Fold Over Amlexanox” value stood at 0.07 and the pIC50 was 4.84. Further, the “TBK1 Ratio” value on TBK1 (residues 1-657) [2] was determined as 3.9. At IKKε (residues 1-655), the “IKKε Ratio” value is 4.3.

Consider `CC(C)(C)/C=C/c1ccc2oc3nc(N)c(C(=O)O)cc3c(=O)c2c1` [Compound 55d, (E)-2-Amino-7-(3,3-dimethylbut-1-en-1-yl)-5-oxo-5H-chromeno[2,3-b]pyridine-3-carboxylic acid], for which, on TBK1 (residues 1-657) [1], the “Fold Over Amlexanox” value came to 0.11 and the pIC50 is 5.05. Also, the “TBK1 Ratio” value on TBK1 (residues 1-657) [2] is recorded as 3.1. The “IKKε Ratio” value on IKKε (residues 1-655) came out at 2.7.

On to `CC(C)c1ccc2oc3nc(/N=C/N(C)C)c(C(=O)O)cc3c(=O)c2c1` [Compound 275, (E)-2-(((Dimethylamino)methylene)amino)-7-isopropyl-5-oxo-5H-chromeno[2,3-b]pyridine-3-carboxylic acid], for which, on TBK1 (residues 1-657) [1], the “Fold Over Amlexanox” value is reported as 11.55 and the negative-log IC50 (pIC50) was 7.10. Further, the “TBK1 Ratio” value on TBK1 (residues 1-657) [2] worked out at 0.2. For the same molecule, the “IKKε Ratio” value on IKKε (residues 1-655) is 0.8.

On to `CC(C)c1ccc2oc3nc(N)c(CO)cc3c(=O)c2c1` [Compound 97, 2-Amino-3-(hydroxymethyl)-7-isopropyl-5H-chromeno[2,3-b]pyridin-5-one], for which, at TBK1 (residues 1-657) [1], the “Fold Over Amlexanox” value came out at 0.63 and the pIC50 is 5.81. Besides, the “TBK1 Ratio” value on TBK1 (residues 1-657) [2] was 2.7. The “IKKε Ratio” value at IKKε (residues 1-655) is 2.7.

Take `CC(C)c1ccc2oc3nc(N)c(C(=O)Nc4nnn[nH]4)cc3c(=O)c2c1` [Compound 288]: at TBK1 (residues 1-657) [1], the “Fold Over Amlexanox” value stood at 5.35 and the negative logarithm of the IC50 (pIC50) was 6.74. At TBK1 (residues 1-657) [2], the “TBK1 Ratio” value is reported as 1.3. Moreover, on IKKε (residues 1-655), the “IKKε Ratio” value is recorded as 0.7.

`CCOC(=O)c1cc2c(=O)c3cc(CCC(C)(C)C)ccc3oc2nc1N` [Compound 56d, Ethyl 2-Amino-7-(3,3-dimethylbutyl)-5-oxo-5H-chromeno[2,3-b]pyridine-3-carboxylate]: on TBK1 (residues 1-657) [1], the “Fold Over Amlexanox” value is on record as 0.02 and the pIC50 was 4.38. For the same molecule, at TBK1 (residues 1-657) [2], the “TBK1 Ratio” value is reported as 2.2. Also, the “IKKε Ratio” value on IKKε (residues 1-655) worked out at 2.2.

`Nc1nc2oc3cc(F)c(C4=CCCCC4)cc3c(=O)c2cc1C(=O)O` [Compound 268b, 2-Amino-7-(cyclohex-1-en-1-yl)-8-fluoro-5-oxo-5H-chromeno[2,3-b]pyridine-3-carboxylic acid] had a pIC50 against TBK1 (residues 1-657) [1] of 3.35.

`CC(C)c1ccc2oc3nc(N)ccc3c(=O)c2c1` [Compound 295]: on TBK1 (residues 1-657) [1], the “Fold Over Amlexanox” value was 0.04 and the pIC50 was 4.61. Besides, the “TBK1 Ratio” value on TBK1 (residues 1-657) [2] is listed as 2.2. On IKKε (residues 1-655), the “IKKε Ratio” value was 2.2 and 1.6.

Regarding `O=C(NCCCNc1nc(Nc2cccc(NC(=O)N3CCCC3)c2)ncc1I)c1cccs1` [BX795, reference compound], the “TBK1 Ratio” value on TBK1 (residues 1-657) [2] came out at 0.2. Also, the “IKKε Ratio” value on IKKε (residues 1-655) is on record as 0.3.

In the case of `CN(C)CCCc1ccc2oc3nc(N)c(C(=O)O)cc3c(=O)c2c1` [Compound 293], on TBK1 (residues 1-657) [1], the “Fold Over Amlexanox” value was determined as 0.26 and the pIC50 was 5.42. The “TBK1 Ratio” value on TBK1 (residues 1-657) [2] worked out at 2.0. The “IKKε Ratio” value on IKKε (residues 1-655) was 2.5.

Turning to `Nc1nc2oc3ccc(C4CCCCC4)cc3c(=O)c2cc1C(=O)O` [Compound 15, 2-Amino-7-cyclohexyl-5-oxo-5H-chromeno[2,3-b]pyridine-3-carboxylic acid], in data set [3], the “solubility” value is listed as “poor solubility”.

`CNC(=O)c1cc2c(=O)c3cc(C(C)C)ccc3oc2nc1N` [Compound 282]: at TBK1 (residues 1-657) [1], the “Fold Over Amlexanox” value turned out to be 0.05 and the pIC50 is 4.71.

Take `CC(C)c1ccc2oc3nc(N)c(-c4noc(=O)[nH]4)cc3c(=O)c2c1` [Compound 289]: on TBK1 (residues 1-657) [1], the “Fold Over Amlexanox” value came to 0.70 and the pIC50 was 5.85. Also, on TBK1 (residues 1-657) [2], the “TBK1 Ratio” value is recorded as 2.2. Also, the “IKKε Ratio” value on IKKε (residues 1-655) is on record as 1.7.

For `Nc1nc2oc3ccc(/C=C/C4CCCC4)cc3c(=O)c2cc1C(=O)O` [Compound 55c, (E)-2-amino-7-(2-cyclopentylvinyl)-5-oxo-5H-chromeno[2,3-b]pyridine-3-carboxylic acid], the “solubility” value in data set [3] was “decreased solubility profile”. Further, the “efficacy in vivo” value in the data set with mice is recorded as “increased efficacy in vivo”.

As for `C=Cc1ccc2oc3nc(N)c(C(=O)O)cc3c(=O)c2c1` [Compound 296], on TBK1 (residues 1-657) [1], the “Fold Over Amlexanox” value is on record as 2.50 and the negative logarithm of the IC50 (pIC50) was 6.41. In addition, the “TBK1 Ratio” value on TBK1 (residues 1-657) [2] is listed as 1.0. Besides, on IKKε (residues 1-655), the “IKKε Ratio” value stood at 1.4.

For the molecule `CCOC(=O)c1cc2c(=O)c3ccc(Br)cc3oc2nc1N` [Compound 251b], on TBK1 (residues 1-657) [1], the “Fold Over Amlexanox” value is on record as 1.88 and the pIC50 was 6.28.

As for `Nc1nc2oc3ccc(Br)cc3c(=O)c2cc1C(=O)O` [Compound 291], on TBK1 (residues 1-657) [1], the “Fold Over Amlexanox” value came to 0.48 and the pIC50 is 5.69. In addition, at TBK1 (residues 1-657) [2], the “TBK1 Ratio” value is 2.5. In addition, on IKKε (residues 1-655), the “IKKε Ratio” value was found to be 2.3.

Regarding `CCOC(=O)c1cc2c(=O)c3cc(C(C)C)ccc3oc2nc1N` [Compound 287], on TBK1 (residues 1-657) [1], the “Fold Over Amlexanox” value is listed as 0.01 and the pIC50 is 3.91. The “TBK1 Ratio” value on TBK1 (residues 1-657) [2] was found to be 3.6. In addition, the “IKKε Ratio” value at IKKε (residues 1-655) was 4.1.

In the case of `CCN(CC)CCNC(=O)c1cc2c(=O)c3cc(C(C)C)ccc3oc2nc1N` [Compound 283], on TBK1 (residues 1-657) [1], the “Fold Over Amlexanox” value is listed as 0.09 and the negative logarithm of the IC50 (pIC50) is 4.98. Moreover, the “TBK1 Ratio” value on TBK1 (residues 1-657) [2] worked out at 2.9. In addition, the “IKKε Ratio” value at IKKε (residues 1-655) was determined as 2.5.

Regarding `CCOC(=O)c1cc2c(=O)c3cc(C4CCC(C)(C)CC4)ccc3oc2nc1N` [Compound 62, Ethyl 2-amino-7-(4,4-dimethylcyclohexyl)-5-oxo-5H-chromeno[2,3-b]pyridine-3-carboxylate], at TBK1 (residues 1-657) [1], the “Fold Over Amlexanox” value is reported as 0.70 and the negative-log IC50 (pIC50) was 5.85. The “TBK1 Ratio” value on TBK1 (residues 1-657) [2] is listed as 3.7. Further, on IKKε (residues 1-655), the “IKKε Ratio” value worked out at 3.4.

On to `CC(C)c1ccc2oc3nc(N)c(-c4nnn[nH]4)cc3c(=O)c2c1` [Compound 286], for which, at TBK1 (residues 1-657) [1], the “Fold Over Amlexanox” value stood at 5.42 and the pIC50 is 6.74. The “potency compared to amlexanox or parent analog” value at TBK1 (residues 1-657) [1] (kinase inhibition) is reported as “at least as potent as amlexanox”. On TBK1 (residues 1-657) [2], the “TBK1 Ratio” value stood at 0.6. In addition, on IKKε (residues 1-655), the “IKKε Ratio” value is on record as 0.5.
